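Five compound concentrations were applied to cells in 96-well plates for 48 hours; endpoints were derived by simple linear interpolation of the resulting dose-response curve. Abbreviation: GI50, concentration required for 50% inhibition of growth.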 Active and inactive are the calls of the source. Rule as the data show it: active = GI50 up to about 1.1 µM and inactive = higher.
Key:
Test in all cases: NCI-60 cell line screen, 48 h
HCT-116 = test system: HCT-116
DLD-1 = test system: DLD-1
HOP-62 = test system: HOP-62
DMS-273 = test system: DMS-273
NCI-H522 = test system: NCI-H522
SNB-75 = test system: SNB-75
ACHN = test system: ACHN
KM-20L2 = test system: KM-20L2
HCC 2998 = test system: HCC 2998
COLO 205 = test system: COLO 205
SNB-19 = test system: SNB-19
CCRF-CEM = test system: CCRF-CEM
SK-MEL-5 = test system: SK-MEL-5
LXFL 529 = test system: LXFL 529
XF498 = test system: XF498
Malme-3M = test system: Malme-3M
SK-OV-3 = test system: SK-OV-3
786-0 = test system: 786-0
RXF 393 = test system: RXF 393
EKVX = test system: EKVX
OVCAR-4 = test system: OVCAR-4
LOX IMVI = test system: LOX IMVI
UO-31 = test system: UO-31
OVCAR-3 = test system: OVCAR-3
SNB-78 = test system: SNB-78
SW-620 = test system: SW-620
KM12 = test system: KM12
HT-29 = test system: HT-29
HL-60 = test system: HL-60
RPMI-8226 = test system: RPMI-8226
A549 = test system: A549
M19-MEL = test system: M19-MEL
OVCAR-8 = test system: OVCAR-8
NCI-H23 = test system: NCI-H23
SF-539 = test system: SF-539
SF-268 = test system: SF-268
DMS-114 = test system: DMS-114
SR = test system: SR
SF-295 = test system: SF-295
HOP-92 = test system: HOP-92
M14 = test system: M14
IGROV-1 = test system: IGROV-1
SK-MEL-28 = test system: SK-MEL-28
U-251 = test system: U-251
CAKI-1 = test system: CAKI-1
TK-10 = test system: TK-10
NCI-H460 = test system: NCI-H460
SN12C = test system: SN12C
UACC-62 = test system: UACC-62
HCT-15 = test system: HCT-15
OVCAR-5 = test system: OVCAR-5
SK-MEL-2 = test system: SK-MEL-2
NCI-H226 = test system: NCI-H226
K562 = test system: K562

O=C1Nc2ccccc2Nc2nc3cccccc-3c21
GI50 (HCT-116): > 100 µM (inactive)
GI50 (DLD-1): > 100 µM (inactive)
GI50 (HOP-62): > 100 µM (inactive)
GI50 (DMS-273): > 100 µM (inactive)
GI50 (NCI-H522): > 100 µM (inactive)
GI50 (SNB-75): > 100 µM (inactive)
GI50 (ACHN): > 100 µM (inactive)
GI50 (KM-20L2): > 100 µM (inactive)
GI50 (HCC 2998): > 100 µM (inactive)
GI50 (COLO 205): > 100 µM (inactive)
GI50 (SNB-19): > 100 µM (inactive)
GI50 (CCRF-CEM): > 100 µM (inactive)
GI50 (SK-MEL-5): > 100 µM (inactive)
GI50 (LXFL 529): > 100 µM (inactive)
GI50 (XF498): > 100 µM (inactive)
GI50 (Malme-3M): > 100 µM (inactive)
GI50 (SK-OV-3): > 100 µM (inactive)
GI50 (786-0): > 100 µM (inactive)
GI50 (RXF 393): > 100 µM (inactive)
GI50 (EKVX): > 100 µM (inactive)
GI50 (OVCAR-4): > 100 µM (inactive)
GI50 (LOX IMVI): > 100 µM (inactive)
GI50 (UO-31): > 100 µM (inactive)
GI50 (OVCAR-3): > 100 µM (inactive)
GI50 (SNB-78): > 100 µM (inactive)
GI50 (SW-620): > 100 µM (inactive)
GI50 (KM12): > 100 µM (inactive)
GI50 (HT-29): > 100 µM (inactive)
GI50 (HL-60): > 100 µM (inactive)
GI50 (RPMI-8226): > 100 µM (inactive)
GI50 (A549): > 100 µM (inactive)
GI50 (M19-MEL): > 100 µM (inactive)
GI50 (OVCAR-8): > 100 µM (inactive)
GI50 (NCI-H23): > 100 µM (inactive)
GI50 (SF-539): > 100 µM (inactive)
GI50 (SF-268): > 100 µM (inactive)
GI50 (DMS-114): > 100 µM (inactive)
GI50 (SR): > 100 µM (inactive)
GI50 (SF-295): > 100 µM (inactive)
GI50 (HOP-92): > 100 µM (inactive)
GI50 (M14): > 100 µM (inactive)
GI50 (IGROV-1): > 100 µM (inactive)
GI50 (SK-MEL-28): > 100 µM (inactive)
GI50 (U-251): > 100 µM (inactive)
GI50 (CAKI-1): > 100 µM (inactive)
GI50 (TK-10): > 100 µM (inactive)
GI50 (NCI-H460): > 100 µM (inactive)
GI50 (SN12C): > 100 µM (inactive)
GI50 (UACC-62): > 100 µM (inactive)
GI50 (HCT-15): > 100 µM
GI50 (OVCAR-5): > 100 µM (inactive)
GI50 (SK-MEL-2): > 100 µM (inactive)
GI50 (NCI-H226): > 100 µM (inactive)
GI50 (K562): > 100 µM (inactive)

— ChEMBL document CHEMBL1201862, “PubChem BioAssay data set” (2004)
